This is an account of results in paper PMC4394992 (Journal of controlled release : official journal of the …, 2015).

Assay [1] has as its system Miapaca-2 cells. The assay can be described thus: Cell clonogenic assay, drug alone. Conditions: Miapaca-2, 3 µM. It is filed as cell-based, human.
The test system of assay [2] is 4T1 cells. Nature of the assay: Cell clonogenic assay, drug alone. It is filed as cell-based, murine. The note with it: 4T1, 3 µM.
Assay [3] concerns 4T1 murine breast cancer cells. Nature of the assay: Cell proliferation MTS assay. Format: cell-based. The note with it: Mus musculus, 96 h. On the technique in general: Tetrazolium dyes change colour on reduction, which living cells bring about.

As usually defined, the IC50 is the concentration needed to halve the response being measured. As to `CC1=C2C[C@H]3[C@@H](CC=C4C[C@@H](O)CC[C@@]43C)[C@@H]2CC[C@]12O[C@@H]1C[C@H](C)CN[C@H]1[C@H]2C` [free CPA, cyclopamine], the entries for the “Reduction of colony numbers” value in assay [1] and in assay [2] were 17.7% ± 4.3 and 6.7% ± 6.1, respectively. Also, the IC50 in assay [3] stood at 11.3 ± 1.2 µM.
